Laboratory results reported in the supplement of paper PMC10627819.

Experiments:
[1] = tested on: B. subtilis 168; assay: fitness (endpoint OD595 vs no drug) (fraction); higher = more growth
How it was run: (§1)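 Each well of a 384-well plate received 30 µl of culture at OD595 0.01, or 55 µl for S. pneumoniae. TSB, LB Lennox or CY served as media at 37 °C. OD595 was taken every 30 min for 14 h and corrected by subtracting the first reading. Fitness is the optical density at stationary-phase entry divided by the robust mean of no-drug controls, capped at 1.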

[2] = tested on: S. pneumoniae D39V; assay: as above
How it was run: as §1

[3] = tested on: S. aureus DSM 20231; assay: as above
How it was run: as §1

[4] = tested on: S. aureus Newman; assay: as above
How it was run: as §1

[5] = tested on: B. subtilis 168; assay: Bliss interaction score (quartile over a dose matrix) (fitness difference); higher = more antagonism (negative = synergy)
How it was run: (§2)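 Growth in each well was taken as OD595 at entry into stationary phase. Dividing by the plate's robust no-drug mean and capping at 1 gave fitness, and single-drug fitness was inferred from the combination data. The Bliss score, observed minus product-expected fitness, is summarised by quartiles over technical, biological and donor/recipient replicates.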

[6] = tested on: S. pneumoniae D39V; assay: as above
How it was run: as §2

[7] = tested on: S. aureus DSM 20231; assay: as above
How it was run: as §2

[8] = tested on: S. aureus Newman; assay: as above
How it was run: as §2
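For Bliss interaction score (quartile over a dose matrix) in this document: first quartile when negative (synergy) and third quartile when positive (antagonism).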

Cc1ncc([N+](=O)[O-])n1CCO [Metronidazole] + COc1c(N2C[C@@H]3CCCN[C@@H]3C2)c(F)cc2c(=O)c(C(=O)O)cn(C3CC3)c12 [Moxifloxacin]
Settings | fitness
[1], first compound 0.625 µg/mL, partner 0.0312 µg/mL | 0.0445
[1], first compound 0.625 µg/mL, partner 0.0625 µg/mL | 0.0572
[1], first compound 0.625 µg/mL, partner 0.125 µg/mL | 0.045
[1], first compound 0.625 µg/mL, partner 2 µg/mL | 0.0237
[1], first compound 0.625 µg/mL, partner 4 µg/mL | 0.0328
[1], first compound 0.625 µg/mL, partner 8 µg/mL | 0.0161
[1], first compound 1.25 µg/mL, partner 0.0312 µg/mL | 0.0649
[1], first compound 1.25 µg/mL, partner 0.0625 µg/mL | 0.0674
[1], first compound 1.25 µg/mL, partner 0.125 µg/mL | 0.0461
[1], first compound 1.25 µg/mL, partner 2 µg/mL | 0.0257
[1], first compound 1.25 µg/mL, partner 4 µg/mL | 0.0355
[1], first compound 1.25 µg/mL, partner 8 µg/mL | 0.022
[1], first compound 2.5 µg/mL, partner 0.0312 µg/mL | 0.0682
[1], first compound 2.5 µg/mL, partner 0.0625 µg/mL | 0.0527
[1], first compound 2.5 µg/mL, partner 0.125 µg/mL | 0.0558
[1], first compound 2.5 µg/mL, partner 2 µg/mL | 0.0301
[1], first compound 2.5 µg/mL, partner 4 µg/mL | 0.0306
[1], first compound 2.5 µg/mL, partner 8 µg/mL | 0.0188
[2], first compound 1.073 µg/mL, partner 0.0037 µg/mL | 0.834
[2], first compound 1.073 µg/mL, partner 0.0075 µg/mL | 0.85
[2], first compound 1.073 µg/mL, partner 0.015 µg/mL | 0.879
[2], first compound 1.25 µg/mL, partner 0.005 µg/mL | 0.991
[2], first compound 1.25 µg/mL, partner 0.01 µg/mL | ≥ 1
[2], first compound 1.25 µg/mL, partner 0.02 µg/mL | 0.975
[2], first compound 2.145 µg/mL, partner 0.0037 µg/mL | 0.689
[2], first compound 2.145 µg/mL, partner 0.0075 µg/mL | 0.707
[2], first compound 2.145 µg/mL, partner 0.015 µg/mL | 0.808
[2], first compound 2.5 µg/mL, partner 0.005 µg/mL | ≥ 1
[2], first compound 2.5 µg/mL, partner 0.01 µg/mL | ≥ 1
[2], first compound 2.5 µg/mL, partner 0.02 µg/mL | ≥ 1
[2], first compound 4.29 µg/mL, partner 0.0037 µg/mL | 0.742
[2], first compound 4.29 µg/mL, partner 0.0075 µg/mL | 0.787
[2], first compound 4.29 µg/mL, partner 0.015 µg/mL | 0.84
[2], first compound 5 µg/mL, partner 0.005 µg/mL | ≥ 1
[2], first compound 5 µg/mL, partner 0.01 µg/mL | 0.999
[2], first compound 5 µg/mL, partner 0.02 µg/mL | 0.983
[3], first compound 0.625 µg/mL, partner 0.0075 µg/mL | 0.835
[3], first compound 0.625 µg/mL, partner 0.015 µg/mL | 0.779
[3], first compound 0.625 µg/mL, partner 0.03 µg/mL | 0.635
[3], first compound 1.25 µg/mL, partner 0.0075 µg/mL | 0.834
[3], first compound 1.25 µg/mL, partner 0.015 µg/mL | 0.807
[3], first compound 1.25 µg/mL, partner 0.03 µg/mL | 0.633
[3], first compound 2.5 µg/mL, partner 0.0075 µg/mL | 0.883
[3], first compound 2.5 µg/mL, partner 0.015 µg/mL | 0.828
[3], first compound 2.5 µg/mL, partner 0.03 µg/mL | 0.652
[4], first compound 0.625 µg/mL, partner 0.0075 µg/mL | 0.77
[4], first compound 0.625 µg/mL, partner 0.015 µg/mL | 0.62
[4], first compound 0.781 µg/mL, partner 0.0075 µg/mL | 0.691
[4], first compound 0.781 µg/mL, partner 0.015 µg/mL | 0.537
[4], first compound 0.781 µg/mL, partner 0.03 µg/mL | 0.0945
[4], first compound 1.25 µg/mL, partner 0.0075 µg/mL | 0.811
[4], first compound 1.25 µg/mL, partner 0.015 µg/mL | 0.598
[4], first compound 1.562 µg/mL, partner 0.0075 µg/mL | 0.689
[4], first compound 1.562 µg/mL, partner 0.015 µg/mL | 0.531
[4], first compound 1.562 µg/mL, partner 0.03 µg/mL | 0.0833
[4], first compound 2.5 µg/mL, partner 0.0075 µg/mL | 0.757
[4], first compound 2.5 µg/mL, partner 0.015 µg/mL | 0.596
[4], first compound 3.124 µg/mL, partner 0.0075 µg/mL | 0.725
[4], first compound 3.124 µg/mL, partner 0.015 µg/mL | 0.525
[4], first compound 3.124 µg/mL, partner 0.03 µg/mL | 0.0829

fitness, [3], one replicate
Settings | first compound 0.625 µg/mL | first compound 1.25 µg/mL | first compound 2.5 µg/mL
partner 0.06 µg/mL | 0.703 | 0.666 | 0.703
partner 0.12 µg/mL | 0.498 | 0.486 | 0.541

Settings | Bliss interaction score
[5] | -0.015
[6] | 0.0628
[7] | -0.063
[8] | -0.0493

Cc1ncc([N+](=O)[O-])n1CCO [Metronidazole] + COc1ccc(C[C@H](N)C(=O)N[C@H]2[C@@H](O)[C@H](n3cnc4c(N(C)C)ncnc43)O[C@@H]2CO)cc1 [Puromycin]
fitness
Settings | first compound 0.625 µg/mL | first compound 1.073 µg/mL | first compound 1.25 µg/mL | first compound 2.145 µg/mL | first compound 2.5 µg/mL | first compound 4.29 µg/mL
[1], partner 0.39 µg/mL | 0.936 | – | 0.945 | – | 0.961 | –
[1], partner 0.78 µg/mL | 0.953 | – | 0.931 | – | 0.937 | –
[1], partner 1.56 µg/mL | 0.946 | – | 0.895 | – | 0.864 | –
[2], partner 1 µg/mL | – | ≥ 1 | – | 0.875 | – | 0.96
[2], partner 2 µg/mL | – | 0.973 | – | 0.904 | – | 0.914
[2], partner 4 µg/mL | – | 0.874 | – | 0.836 | – | 0.88
[3], partner 0.39 µg/mL | 0.997 | – | ≥ 1 | – | ≥ 1 | –
[3], partner 0.78 µg/mL | ≥ 1 | – | ≥ 1 | – | ≥ 1 | –
[3], partner 1.56 µg/mL | ≥ 1 | – | ≥ 1 | – | ≥ 1 | –
[4], partner 0.39 µg/mL | 0.902 | – | 0.998 | – | ≥ 1 | –
[4], partner 0.78 µg/mL | 0.968 | – | ≥ 1 | – | ≥ 1 | –
[4], partner 1.56 µg/mL | ≥ 1 | – | ≥ 1 | – | ≥ 1 | –

one replicate
Settings | fitness
[2], first compound 1.25 µg/mL, partner 1 µg/mL | 0.928
[2], first compound 1.25 µg/mL, partner 2 µg/mL | 0.97
[2], first compound 1.25 µg/mL, partner 4 µg/mL | 0.842
[2], first compound 2.5 µg/mL, partner 1 µg/mL | 0.936
[2], first compound 2.5 µg/mL, partner 2 µg/mL | ≥ 1
[2], first compound 2.5 µg/mL, partner 4 µg/mL | 0.835
[2], first compound 5 µg/mL, partner 1 µg/mL | 0.97
[2], first compound 5 µg/mL, partner 2 µg/mL | 0.95
[2], first compound 5 µg/mL, partner 4 µg/mL | 0.852
[3], first compound 0.625 µg/mL, partner 3.12 µg/mL | ≥ 1
[3], first compound 0.625 µg/mL, partner 6.24 µg/mL | 0.756
[3], first compound 1.25 µg/mL, partner 3.12 µg/mL | 0.957
[3], first compound 1.25 µg/mL, partner 6.24 µg/mL | 0.827
[3], first compound 2.5 µg/mL, partner 3.12 µg/mL | 0.977
[3], first compound 2.5 µg/mL, partner 6.24 µg/mL | 0.848
[4], first compound 0.781 µg/mL, partner 0.39 µg/mL | ≥ 1
[4], first compound 0.781 µg/mL, partner 0.78 µg/mL | ≥ 1
[4], first compound 0.781 µg/mL, partner 1.56 µg/mL | ≥ 1
[4], first compound 1.562 µg/mL, partner 0.39 µg/mL | 0.974
[4], first compound 1.562 µg/mL, partner 0.78 µg/mL | 0.997
[4], first compound 1.562 µg/mL, partner 1.56 µg/mL | ≥ 1
[4], first compound 3.124 µg/mL, partner 0.39 µg/mL | 0.933
[4], first compound 3.124 µg/mL, partner 0.78 µg/mL | ≥ 1
[4], first compound 3.124 µg/mL, partner 1.56 µg/mL | ≥ 1

Settings | Bliss interaction score
[5] | -0.0368
[6] | 0.129
[7] | 0.0499
[8] | 0.0534

Cc1ncc([N+](=O)[O-])n1CCO [Metronidazole] + C[n+]1ccc(-c2cc[n+](C)cc2)cc1 [Paraquat]
fitness
Settings | first compound 0.625 µg/mL | first compound 1.073 µg/mL | first compound 1.25 µg/mL | first compound 2.145 µg/mL | first compound 2.5 µg/mL | first compound 4.29 µg/mL
[1], partner 1.25 µg/mL | 0.973 | – | 0.949 | – | 0.917 | –
[1], partner 2.5 µg/mL | 0.957 | – | 0.929 | – | 0.917 | –
[1], partner 5 µg/mL | 0.851 | – | 0.864 | – | 0.851 | –
[2], partner 1.5 µg/mL | – | 0.969 | – | 0.958 | – | 0.899
[2], partner 3 µg/mL | – | 0.999 | – | 0.905 | – | 0.95
[2], partner 6 µg/mL | – | 0.982 | – | 0.803 | – | 0.912
[3], partner 1.25 µg/mL | 0.97 | – | ≥ 1 | – | ≥ 1 | –
[3], partner 2.5 µg/mL | 0.954 | – | ≥ 1 | – | ≥ 1 | –
[3], partner 5 µg/mL | 0.955 | – | 0.978 | – | ≥ 1 | –
[4], partner 1.25 µg/mL | 0.936 | – | 0.875 | – | 0.862 | –
[4], partner 2.5 µg/mL | 0.944 | – | 0.934 | – | 0.963 | –
[4], partner 5 µg/mL | 0.888 | – | 0.932 | – | 0.973 | –

fitness, one replicate
Settings | first compound 0.781 µg/mL | first compound 1.25 µg/mL | first compound 1.562 µg/mL | first compound 2.5 µg/mL | first compound 3.124 µg/mL | first compound 5 µg/mL
[2], partner 1.5 µg/mL | – | 0.983 | – | ≥ 1 | – | ≥ 1
[2], partner 3 µg/mL | – | 0.99 | – | ≥ 1 | – | ≥ 1
[2], partner 6 µg/mL | – | ≥ 1 | – | ≥ 1 | – | ≥ 1
[4], partner 1.25 µg/mL | 0.916 | – | 0.899 | – | 0.844 | –
[4], partner 2.5 µg/mL | 0.951 | – | 0.874 | – | 0.908 | –
[4], partner 5 µg/mL | 0.919 | – | 0.907 | – | 0.984 | –

Settings | Bliss interaction score
[5] | 0.0442
[6] | -0.0431
[7] | 0.0478
[8] | 0.0779
